Source: patent US11084784B2, “ROR-gamma modulators and uses thereof” (PIRAMAL ENTERPRISES LIMITED, priority 2014, dated 2021)

Biological target: RORγt (Homo sapiens (Human), UniProt P51449)
Experiment: RORγt luciferase reporter assay in CHO-K1 cells (RORgamma inhibitory activity)
Type: cell-based
Settings: CHO-K1 cells stably transfected with RORγt, transiently transfected with pFR Luc; 18-20 hours treatment; luminescence; read-out: In-vitro IC50 value IC50
Procedure: The representative compounds are referred to as the test compounds.
CHO-K1 cells stably transfected with RORγt are maintained in MEM-EBS with 5% FBS, 1% penicillin streptomycin solution and 1 mg/mL G418. The cells are seeded at a density of 200000 cells/mL in white 96 well flat bottom plate. Post 16-18 hours incubation, the cells are transiently transfected with pFR Luc (50 ng/well DNA) for four hours. The cells are then treated with different doses of the test compounds in MEM EBS media with 10% FBS and 1% penicillin streptomycin. DMSO is used as vehicle control. After 18-20 hours treatment, the cells are lysed with lysis buffer (40 mM HEPES, 20 mM EGTA, 50 mM β-glycerophosphate, 10% glycerol and 1% Triton X-100 in distilled water) for 0.5 hour and luminescence is read using Tecan Safire reader at 1000 milli second integration time.

RORγt, sequence (P51449 other isoform, or with tags, fused parts or gaps, species assumed): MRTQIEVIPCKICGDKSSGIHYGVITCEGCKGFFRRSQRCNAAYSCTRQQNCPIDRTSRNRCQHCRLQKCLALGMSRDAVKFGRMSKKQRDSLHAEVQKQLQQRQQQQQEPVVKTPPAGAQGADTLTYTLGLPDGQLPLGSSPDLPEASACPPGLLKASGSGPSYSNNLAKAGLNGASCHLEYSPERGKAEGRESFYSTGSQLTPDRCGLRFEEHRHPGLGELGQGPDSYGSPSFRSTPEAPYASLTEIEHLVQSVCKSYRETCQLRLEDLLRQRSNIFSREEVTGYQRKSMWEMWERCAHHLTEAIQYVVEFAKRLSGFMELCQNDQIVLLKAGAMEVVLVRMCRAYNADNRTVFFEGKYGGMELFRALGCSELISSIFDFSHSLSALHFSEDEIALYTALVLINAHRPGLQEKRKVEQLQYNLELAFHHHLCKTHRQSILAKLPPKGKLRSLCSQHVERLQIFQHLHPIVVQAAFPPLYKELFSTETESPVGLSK

| IC50 | Structure (SMILES) |
| --- | --- |
| 0.01 to 50 nM | CCS(=O)(=O)c1ccc(CC(=O)Nc2ccc(C3=CCC(O)CC3)c(C(F)(F)F)c2)cc1 (centres unmarked) [Example 34, 2-(4-(Ethylsulfonyl)phenyl)-N-(4′-hydroxy-2-(trifluoromethyl)-2′,3′,4′,5′-tetrahydro-[1,1′-biphenyl]-4-yl)acetamide] |
| 0.01 to 50 nM | CCS(=O)(=O)c1ccc(CC(=O)Nc2ccc3c(c2)CCCC3(O)c2ccc(OC)cc2)cc1 (centres unmarked) [Example 43, 2-(4-(Ethylsulfonyl)phenyl)-N-(5-hydroxy-5-(4-methoxyphenyl)-5,6,7,8-tetrahydronaphthalen-2-yl)acetamide] |

The next lines start with the compound.

| Structure (SMILES) | IC50 |
| --- | --- |
| CCS(=O)(=O)c1ccc(CC(=O)Nc2ccc(OC3CCCCC3)c(C(F)(F)F)c2)cc1 [Example 23, N-(4-(Cyclohexyloxy)-3-(trifluoromethyl)phenyl)-2-(4-(ethylsulfonyl)phenyl)acetamide] | 50 to 100 nM |
| CCS(=O)(=O)c1ccc(CC(=O)Nc2ccc(C3=CCC(=O)CC3)c(C(F)(F)F)c2)cc1 [Example 24, 2-(4-(Ethylsulfonyl)phenyl)-N-(4′-oxo-2-(trifluoromethyl)-2′,3′,4′,5′-tetrahydro-[1,1′-biphenyl]-4-yl)acetamide] | 0.01 to 50 nM |
| CCS(=O)(=O)c1ccc(CC(=O)Nc2ccc(C3CCCCC3)cc2)cc1 [Example 25, N-(4-Cyclohexylphenyl)-2-(4-(ethylsulfonyl)phenyl)acetamide] | 0.01 to 50 nM |
